Measured values published in patent publication US5482923A, “Heparin neutralization with platelet factor 4 fragments” (Repligen Corporation, priority 1993, dated 1996).
“Also recorded” adds a separate entry of the source.

What was measured:
[1] = tested on: thrombin; assay: Prevention of heparin inhibition of thrombin, conditions similar to the Factor Xa experiments; format: biochemical; settings: for ability to prevent heparin inhibition of thrombin: in vitro; for prevention of heparin inhibition of thrombin: 1 μM
Description: (§1) The lysine rich region of PF4 (residues 61-66) is also the domain associated with the binding of heparin by PF4. Heparin is known to play a role in modulating anglogenesis, which can also be affected by protamine, another well characterized heparin-binding protein. To assess the ability of PF4-based synthetic peptides to bind heparin, we assayed the activity of coagulation-cascade enzymes which are inhibited by heparin. The Factor Xa assay used here has previously been described in Denton et al., Biochem. J., 209:455-460 (1983).
In experiments carried out under conditions similar to the Factor Xa experiments, thrombin was inhibited 99% by 0.25 units of heparin.

[2] = tested on: Factor Xa; assay: Factor Xa assay: prevention of heparin inhibition of Factor Xa; format: biochemical; settings: for ability to prevent heparin inhibition of Factor Xa: in vitro; for restoration of Factor Xa activity: low concentrations
Description: as §1
PF4 isolated from platelets and recombinant E. coli cells were compared for their abilities to prevent heparin inhibition of Factor Xa (essential for the production of thrombin) in vitro.
The abilities of protamine and rPF4 to prevent heparin-inhibition of the coagulation enzyme Factor Xa were compared. The details of the assay are described by Denton et al, 1983, Biochem. J. 209:455. In the Factor Xa assay, 0.5 units of heparin inhibited enzymatic activity almost 90%.
Similar studies and results may be obtained using certain fragments of PF4 or rPF4 that include the heparin binding region, residues 61-66.

[3] = tested on: normal human plasma; assay: Neutralization of heparin in human plasma (APTT); settings: 1 unit/ml of heparin; for restoring the APTT to its heparin-free level: added during the incubation before activated thromboplastin
Description: Neutralization of heparin in human plasma was also examined. The activated partial thromboplastin time (APTT) of normal human plasma was increased from its base level of approximately 30 seconds to 195 seconds by the addition of 1 unit/ml of heparin.

[4] = tested on: Sprague Dawley rats; assay: In vivo heparin neutralization in rats (APTT); design: species or system rat; settings: for APTT after neutralizing agent: heparin 1 unit/g at t=0, agent at t=2 min, protamine sulfate 1 ug/g, PF4 7.5 ug/g, read at t=10 min
Protocol: (§2) In Vivo experiments were performed on rats to compare the heparin neutralizing activity of protamine and PF4 and to investigate the effect of PF4 on platelet and white blood cell count.
(§3) Sprague Dawley rats (225 g) were anesthetized with pentobarbital, the trachea was intubated, and the right femoral vein and carotid artery were cannulated. The intravenous infusion of heparin was followed by infusion of either protamine or rPF4. Arterial blood samples were taken prior to and immediately after heparin infusion and at several time points following the infusion of the neutralizing agent. Controls were conducted with Ringer's solution in place of heparin and the experimental agents. Samples were used for the following determinations: clotting time, platelet count, and white blood cell count.
(§4) Referring to FIGS. 1 and 2, data are shown from a typical experiment comparing the platelet count, white blood cell count and the APTT in rats when injected with heparin followed by protamine sulfate (FIG. 1) and when injected with heparin followed by rPF4 (FIG. 2). In these Figs., heparin was injected at t=0 and either protamine sulfate or rPF4 injected two minutes thereafter (t=2 minutes). The dosages used were: heparin 1 unit/g animal wt.; protamine sulfate 1 ug/g animal wt.; and PF4 7.5 ug/g animal wt.
Referring now to FIGS. 3 to 5, statistical bar graph data are shown comparing APTT, platelet count, (PC) and white blood cell (WBC) count in rats injected with a control solution, Ringers solution (FIG. 3), injected with heparin followed by protamine sulfate (FIG. 4) and injected with heparin followed by rPF4 (FIG. 5). […]
Samples A were taken before injection; samples B, 2 min after heparin injection; samples C, 10 min after heparin and 8 min after protamine sulfate injection; and samples D, 18 min after heparin injection. Data represent mean values and S.E.M. from experiments except that white blood cells and platelets were counted only in 3 samples taken at 2 and at 18 min after heparin injection. […]

[5] = tested on: Sprague Dawley rats; assay: In vivo effect on platelet count, white blood cell count and hematocrit in heparinized rats; design: species or system rat; settings: for platelet count, % of initial: after heparin followed by neutralizing agent, FIGS. 4 and 5; for hematocrit levels: conditions as for FIGS. 1 and 2; for change of platelet and white blood cell counts: heparin 100 units/100 g followed by protamine sulfate 100 μg/100 g or rPF4 7.5 μg/g; for white blood cell count / platelet count: t=10 minutes, 8 min after agent, protamine sulfate 1 ug/g, PF4 7.5 ug/g; for white blood cell count: protamine sulfate group over 5 at t=0; for platelet count: t=0: protamine sulfate over 800, rPF4 700
Protocol: as §2, §3, §4
Experiments were also conducted to investigate hematocrit levels under conditions as described with respect to FIGS. 1 and 2. No change in hematocrit levels were observed when either PF4 or protamine were used for heparin neutralization.
Referring now to FIGS. 3 to 5, statistical bar graph data are shown comparing APTT, platelet count, (PC) and white blood cell (WBC) count in rats injected with a control solution, Ringers solution (FIG. 3), injected with heparin followed by protamine sulfate (FIG. 4) and injected with heparin followed by rPF4 (FIG. 5). The data included control rats, five rats injected with heparin followed by protamine sulfate and two rats injected with heparin followed by rPF4.
Samples A were taken before injection; samples B, 2 min after heparin injection; samples C, 10 min after heparin and 8 min after protamine sulfate injection; and samples D, 18 min after heparin injection. Data represent mean values and S.E.M. from experiments except that white blood cells and platelets were counted only in 3 samples taken at 2 and at 18 min after heparin injection. […] The decrease was statistically significant (p<0.01) as compared to samples obtained before heparin injection.
Data represent mean values and S.E.M. from 2 experiments for samples taken at times A-D as indicated in the discussion above with respect to FIG. 4.

[6] = tested on: Sprague Dawley rats; assay: as above; design: species or system rat; settings: low doses of rPF4 (150 μg/100g); three experiments

“C-13: C-13 peptide of PF4, a PF4-based synthetic peptide (PLYKKIIKKLLES; UniProt P02776 89-101, looked up, fragment)” was tested, and the “ability to prevent heparin inhibition of thrombin” value [1] was “unable to prevent the inhibition of thrombin even at concentrations ten times that of an effective level of rPF4”.

With “C-41: The 41 amino acid C-terminal peptide of PF4 (IKAGPHCPTAQLIATLKNGRKICLDLQAPLYKKIIKKLLES; UniProt P02776 61-101, looked up, fragment)” the “ability to prevent heparin inhibition of Factor Xa” value [2] was “prevented heparin inhibition less effectively; also recorded: demonstrated the ability to neutralize heparin in vitro” and the “ability to prevent heparin inhibition of thrombin” value [1] was “prevented heparin inhibition less effectively”.

In the case of heparin [reference compound], the “activated partial thromboplastin time (APTT)” value ([3]; base level approximately 30 seconds) is reported as 195 s, the “inhibition of Factor Xa enzymatic activity” value ([2]; 0.5 units of heparin) is reported as ~90% and the inhibition of thrombin ([1]; 0.25 units of heparin) is reported as 99%.

protamine was tested, and the “restoring the APTT to its heparin-free level” value [3] was “equally effective in restoring the APTT to its heparin-free level”, the “APTT after neutralizing agent” value [4] was “decrease in the APTT to approximately normal levels after about 10 minutes” and the “platelet count, % of initial” value [5] was 48±12.2%. For the same substance, the WBC count ([5]; after heparin followed by protamine sulfate, FIG. 4) was “decreased”, the hematocrit levels [5] was “No change” and the respiratory problems ([5]; heparin 1 unit/g followed by protamine sulfate 1 ug/g) was “These rats also had respiratory problems”. For the same substance, the “change of platelet and white blood cell counts” value [5] was “significant decrease of white blood cell count and platelet count; also recorded: drop in platelet and white blood cell counts”, the “white blood cell count” value [5] was “less than 3 ×10^3 /μl” and the platelet count [5] was “less than 500 ×10^3 /μl”. The “ability to prevent heparin inhibition of Factor Xa” value [2] was “able to prevent the heparin inhibition of thrombin and Factor Xa at approximately equimolar concentrations”, the “restoration of Factor Xa activity” value ([2]; 0.5 units of heparin) was “partially restored Factor Xa activity” and the “prevention of heparin inhibition of thrombin” value ([1]; 0.25 units of heparin) was “completely prevented heparin inhibition”. For the same substance, the “molar dose responses, rPF4 compared with protamine” value ([1]; 0.25 units of heparin) was “no significant difference in their molar dose responses” and the “ability to prevent heparin inhibition of thrombin” value [1] was “able to prevent the heparin inhibition of thrombin and Factor Xa at approximately equimolar concentrations”.

For “rPF4: Recombinant native sequence human platelet factor 4, 70 residues, produced in E. coli as a fusion protein and cleaved with CNBr”, the “restoring the APTT to its heparin-free level” value [3] was “equally effective in restoring the APTT to its heparin-free level”, the “APTT after neutralizing agent” value [4] was “restoration of normal APTT levels” and the “neutralization of the anticoagulant effect of heparin” value ([4]; low doses of rPF4 (150 μg/100g), three experiments) was “partially neutralized”. The “effect on platelets and white blood cells” value [6] was “no effect on platelets and white blood cells”, the “platelet count, % of initial” value [5] was 89±4.9% and the hematocrit levels [5] was “No change”. The “change of platelet and white blood cell counts” value [5] was “did not lead to the extensive depletion of platelet and white blood cells; also recorded: did not produce a statistical decrease in platelet and white blood count”, the “white blood cell count” value [5] was “about 4 ×10^3 /μl” and the platelet count [5] was “about 500 ×10^3 /μl”. For the same substance, the “preventing Factor Xa inhibition, compared with protamine” value ([2]; concentrations greater than 1 μM, 0.5 units of heparin) was “clearly more effective in preventing Factor Xa inhibition”, the “ability to prevent heparin inhibition of Factor Xa” value [2] was “able to prevent the heparin inhibition of thrombin and Factor Xa at approximately equimolar concentrations” and the “restoration of Factor Xa activity” value ([2]; 0.5 units of heparin) was “partially restored Factor Xa activity”. The “prevention of heparin inhibition of thrombin” value ([1]; 0.25 units of heparin) was “completely prevented heparin inhibition”, the “molar dose responses, rPF4 compared with protamine” value ([1]; 0.25 units of heparin) was “no significant difference in their molar dose responses” and the “ability to prevent heparin inhibition of thrombin” value [1] was “able to prevent the heparin inhibition of thrombin and Factor Xa at approximately equimolar concentrations”.
